System: 282377-053-R-J1-PDC complex spheroid viability
Assay: Anticancer human tumor 282377-053-R-J1-PDC patient-derived colon adenocarcinoma cell line growth inhibition [RAS]
Conditions: for IC50: curve of first compound; for viability, T/C: stronger effect = lower value; active = viability on the fitted dose curve at most 10% of control; inactive = the rest
In short: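 Agents were tested in combination matrices in half-log decrements from a top concentration at or near clinical Cmax (10 microM if undetermined). Targets were multi-cell spheroids of tumour lines plus HUVEC and MSC stromal cells.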

[1] = second compound 0.000949 µM, first compound 0.0316 µM
[2] = second compound 0.000949 µM, first compound 0.1 µM
[3] = second compound 0.000949 µM, first compound 0.316 µM
[4] = second compound 0.000949 µM, first compound 1 µM
[5] = second compound 0.003 µM, first compound 0.0316 µM
[6] = second compound 0.003 µM, first compound 0.1 µM
[7] = second compound 0.003 µM, first compound 0.316 µM
[8] = second compound 0.003 µM, first compound 1 µM
[9] = second compound 0.00949 µM, first compound 0.0316 µM
[10] = second compound 0.00949 µM, first compound 0.1 µM
[11] = second compound 0.00949 µM, first compound 0.316 µM
[12] = second compound 0.00949 µM, first compound 1 µM
[13] = second compound 0.03 µM, first compound 0.0316 µM
[14] = second compound 0.03 µM, first compound 0.1 µM
[15] = second compound 0.03 µM, first compound 0.316 µM
[16] = second compound 0.03 µM, first compound 1 µM
[17] = second compound 0.0949 µM, first compound 0.0316 µM
[18] = second compound 0.0949 µM, first compound 0.1 µM
[19] = second compound 0.0949 µM, first compound 0.316 µM
[20] = second compound 0.0949 µM, first compound 1 µM
[21] = second compound 0.3 µM, first compound 0.0316 µM
[22] = second compound 0.3 µM, first compound 0.1 µM
[23] = second compound 0.3 µM, first compound 0.316 µM
[24] = second compound 0.3 µM, first compound 1 µM
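Note: spheroids exposed to agents for seven days before readout.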
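Throughout, for viability, T/C: luminescence viability as percent of DMSO vehicle control wells.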

CC(=O)OC12COC1CC(O)C1(C)C(=O)C(O)C3=C(C)C(OC(=O)C(O)C(NC(=O)OC(C)(C)C)c4ccccc4)CC(O)(C(OC(=O)c4ccccc4)C21)C3(C)C (stereo unspecified) + CCn1c(-c2cccnc2C(C)OC)c2c3cc(ccc31)N1CCOC(CC(NC(=O)C(C(C)C)N(C)C(=O)C3(F)CCN(C(=O)C#CC(C)(C)N(C)C)CC3)C(=O)N3CCCC(N3)C(=O)OCC(C)(C)C2)C1
> 10000 nM: IC50 (second compound 0.3 µM)
< 31.6 nM: IC50 (second compound 0.000949 µM) | IC50 (second compound 0.003 µM) | IC50 (second compound 0.00949 µM) | IC50 (second compound 0.03 µM) | IC50 (second compound 0.0949 µM)
inactive: viability, T/C [1] 35% | viability, T/C [2] 39.9% | viability, T/C [3] 40.9% | viability, T/C [4] 50.3% | viability, T/C (second compound 0.000949 µM, first compound 3.16 µM) 48.3% | viability, T/C (second compound 0.000949 µM, first compound 10 µM) 109% | viability, T/C [5] 44.6% | viability, T/C [6] 44.1% | viability, T/C [7] 42.8% | viability, T/C [8] 43.7% | viability, T/C (second compound 0.003 µM, first compound 3.16 µM) 57.7% | viability, T/C (second compound 0.003 µM, first compound 10 µM) 92% | viability, T/C [9] 54.8% | viability, T/C [10] 43.4% | viability, T/C [11] 40.3% | viability, T/C [12] 42.8% | viability, T/C (second compound 0.00949 µM, first compound 3.16 µM) 63.7% | viability, T/C (second compound 0.00949 µM, first compound 10 µM) 84.7% | viability, T/C [13] 48.3% | viability, T/C [14] 39.7% | viability, T/C [15] 38.4% | viability, T/C [16] 52.5% | viability, T/C (second compound 0.03 µM, first compound 3.16 µM) 83.4% | viability, T/C (second compound 0.03 µM, first compound 10 µM) 94.6% | viability, T/C [17] 48.9% | viability, T/C [18] 51.1% | viability, T/C [19] 47.5% | viability, T/C [20] 55.4% | viability, T/C (second compound 0.0949 µM, first compound 3.16 µM) 88% | viability, T/C (second compound 0.0949 µM, first compound 10 µM) 117% | viability, T/C [21] 53.8% | viability, T/C [22] 54.5% | viability, T/C [23] 53.6% | viability, T/C [24] 66.4% | viability, T/C (second compound 0.3 µM, first compound 3.16 µM) 85.5% | viability, T/C (second compound 0.3 µM, first compound 10 µM) 119%

CCc1c2c(nc3ccc(O)cc13)-c1cc3c(c(=O)n1C2)COC(=O)[C@]3(O)CC + CCn1c(-c2cccnc2C(C)OC)c2c3cc(ccc31)N1CCOC(CC(NC(=O)C(C(C)C)N(C)C(=O)C3(F)CCN(C(=O)C#CC(C)(C)N(C)C)CC3)C(=O)N3CCCC(N3)C(=O)OCC(C)(C)C2)C1
> 300 nM: IC50 (second compound 0.000949 µM) | IC50 (second compound 0.003 µM) | IC50 (second compound 0.00949 µM) | IC50 (second compound 0.03 µM) | IC50 (second compound 0.0949 µM)
182 nM: IC50 (second compound 0.3 µM)
inactive: viability, T/C (second compound 0.000949 µM, first compound 0.000949 µM) 133% | viability, T/C (second compound 0.000949 µM, first compound 0.003 µM) 105% | viability, T/C (second compound 0.000949 µM, first compound 0.00949 µM) 161% | viability, T/C (second compound 0.000949 µM, first compound 0.03 µM) 108% | viability, T/C (second compound 0.000949 µM, first compound 0.0949 µM) 95.5% | viability, T/C (second compound 0.000949 µM, first compound 0.3 µM) 90.6% | viability, T/C (second compound 0.003 µM, first compound 0.000949 µM) 111% | viability, T/C (second compound 0.003 µM, first compound 0.003 µM) 125% | viability, T/C (second compound 0.003 µM, first compound 0.00949 µM) 131% | viability, T/C (second compound 0.003 µM, first compound 0.03 µM) 99.1% | viability, T/C (second compound 0.003 µM, first compound 0.0949 µM) 122% | viability, T/C (second compound 0.003 µM, first compound 0.3 µM) 98.8% | viability, T/C (second compound 0.00949 µM, first compound 0.000949 µM) 129% | viability, T/C (second compound 0.00949 µM, first compound 0.003 µM) 110% | viability, T/C (second compound 0.00949 µM, first compound 0.00949 µM) 142% | viability, T/C (second compound 0.00949 µM, first compound 0.03 µM) 115% | viability, T/C (second compound 0.00949 µM, first compound 0.0949 µM) 98% | viability, T/C (second compound 0.00949 µM, first compound 0.3 µM) 85.1% | viability, T/C (second compound 0.03 µM, first compound 0.000949 µM) 95% | viability, T/C (second compound 0.03 µM, first compound 0.003 µM) 115% | viability, T/C (second compound 0.03 µM, first compound 0.00949 µM) 146% | viability, T/C (second compound 0.03 µM, first compound 0.03 µM) 139% | viability, T/C (second compound 0.03 µM, first compound 0.0949 µM) 110% | viability, T/C (second compound 0.03 µM, first compound 0.3 µM) 94.4% | viability, T/C (second compound 0.0949 µM, first compound 0.000949 µM) 119% | viability, T/C (second compound 0.0949 µM, first compound 0.003 µM) 143% | viability, T/C (second compound 0.0949 µM, first compound 0.00949 µM) 163% | viability, T/C (second compound 0.0949 µM, first compound 0.03 µM) 136% | viability, T/C (second compound 0.0949 µM, first compound 0.0949 µM) 110% | viability, T/C (second compound 0.0949 µM, first compound 0.3 µM) 82.4% | viability, T/C (second compound 0.3 µM, first compound 0.000949 µM) 96.7% | viability, T/C (second compound 0.3 µM, first compound 0.003 µM) 135% | viability, T/C (second compound 0.3 µM, first compound 0.00949 µM) 149% | viability, T/C (second compound 0.3 µM, first compound 0.03 µM) 117% | viability, T/C (second compound 0.3 µM, first compound 0.0949 µM) 69.8% | viability, T/C (second compound 0.3 µM, first compound 0.3 µM) 35%

Nc1ccn(C2OC(CO)C(O)C2(F)F)c(=O)n1 (stereo unspecified) + CCn1c(-c2cccnc2C(C)OC)c2c3cc(ccc31)N1CCOC(CC(NC(=O)C(C(C)C)N(C)C(=O)C3(F)CCN(C(=O)C#CC(C)(C)N(C)C)CC3)C(=O)N3CCCC(N3)C(=O)OCC(C)(C)C2)C1
inactive: viability, T/C (second compound 0.000949 µM, first compound 0.00316 µM) 99.3% | viability, T/C (second compound 0.000949 µM, first compound 0.01 µM) 105% | viability, T/C [1] 76% | viability, T/C [2] 92.6% | viability, T/C [3] 67.2% | viability, T/C [4] 57.9% | viability, T/C (second compound 0.003 µM, first compound 0.00316 µM) 100% | viability, T/C (second compound 0.003 µM, first compound 0.01 µM) 97.9% | viability, T/C [5] 99.2% | viability, T/C [6] 109% | viability, T/C [7] 81.1% | viability, T/C [8] 59% | viability, T/C (second compound 0.00949 µM, first compound 0.00316 µM) 106% | viability, T/C (second compound 0.00949 µM, first compound 0.01 µM) 97.9% | viability, T/C [9] 99.3% | viability, T/C [10] 96.8% | viability, T/C [11] 87.2% | viability, T/C [12] 66.1% | viability, T/C (second compound 0.03 µM, first compound 0.00316 µM) 104% | viability, T/C (second compound 0.03 µM, first compound 0.01 µM) 87.7% | viability, T/C [13] 112% | viability, T/C [14] 104% | viability, T/C [15] 103% | viability, T/C [16] 74.1% | viability, T/C (second compound 0.0949 µM, first compound 0.00316 µM) 87% | viability, T/C (second compound 0.0949 µM, first compound 0.01 µM) 98.8% | viability, T/C [17] 92.1% | viability, T/C [18] 74.3% | viability, T/C [19] 91.1% | viability, T/C [20] 68.5% | viability, T/C (second compound 0.3 µM, first compound 0.00316 µM) 111% | viability, T/C (second compound 0.3 µM, first compound 0.01 µM) 99.9% | viability, T/C [21] 92.8% | viability, T/C [22] 116% | viability, T/C [23] 90.9% | viability, T/C [24] 52.9%
> 1000 nM: IC50 (second compound 0.000949 µM) | IC50 (second compound 0.003 µM) | IC50 (second compound 0.00949 µM) | IC50 (second compound 0.03 µM) | IC50 (second compound 0.0949 µM) | IC50 (second compound 0.3 µM)

Reference: PubChem BioAssay AID2060905 (Molecular Pharmacology Branch, DTP, NCI, 2025)
